Assay results published in BindingDB's records for patent US20230322706 (Lg Chem, 2023).
pIC50: −log10 of the molar value.

These compounds were tested against T1, Diacylglycerol O-acyltransferase 2 (Homo sapiens, UniProt Q96PD7) (assay: Measurement of Inhibitory Effect Against DGAT2 Enzyme Activity).
T1 sequence (Q96PD7 whole entry): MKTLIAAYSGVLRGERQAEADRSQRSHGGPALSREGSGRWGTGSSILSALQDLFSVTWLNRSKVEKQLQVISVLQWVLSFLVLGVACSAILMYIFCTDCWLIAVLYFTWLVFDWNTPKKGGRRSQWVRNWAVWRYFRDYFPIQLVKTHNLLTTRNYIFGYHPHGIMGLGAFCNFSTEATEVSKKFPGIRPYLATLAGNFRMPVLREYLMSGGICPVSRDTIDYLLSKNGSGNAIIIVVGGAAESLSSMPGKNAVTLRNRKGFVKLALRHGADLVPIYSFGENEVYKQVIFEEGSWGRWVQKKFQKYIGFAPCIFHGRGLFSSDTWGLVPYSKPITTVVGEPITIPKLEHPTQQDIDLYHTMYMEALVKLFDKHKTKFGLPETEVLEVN
Procedure: 1. […] In order to prepare the pBacPAK9-DGAT2, which is DGAT2 expression vector, the human DGAT2 gene amplified by polymerase chain reaction (PCR) was cloned into the EcoR1 and Xho1 sites of the pBacPAK9 (clonctech) vector. The nucleotide sequence of the primers used in PCR was the forward primer 5′ […] […] and the reverse primer 5′ […]. The composition of the reaction solution was to contain 50 ng of cDNA clone (OriGene), 200 μM of dATP, dCTP, dTTP, dGTP, 200 nM of each primer, 1 unit of Tag DNA Polymerase (Toyobo), 1x PCR buffer, and the final volume was adjusted to 20 μl. The reaction conditions were denatured at 95° C. for 5 minutes, followed by 30 times of 94° C. for 20 seconds, 60° C. for 20 seconds, and 72° C. for 90 seconds, followed by further reaction at 72° C. for 7 minutes. 2. […] Recombinant human DGAT2 protein was expressed in Sf-21 cells, which are insect cells, by using the BacPack baculovirus expression system (Clontech). The brief manufacturing process is as follows. First, the pBacPAK9-DGAT2 expression vector was transfected with BacPAK6 virus DNA (Bsu36I digest) into sf21 cells using Bacfectin to prepare a recombinant DGAT2 expressing baculovirus. The thus prepared baculovirus was infected with Sf-21 cells at 10 MOI (multiplicity of infection), and after 72 hours, infected insect cells were collected and membrane proteins were isolated. […] Protein concentration was quantified by using the BCA Protein Assay Kit (Thermo Scientific). […] The next day, the amplified scintillation signal (cpm) in Topcounter (Packard) was measured to measure the degree of production of [14C]-labeled triacyl glycerol (TG) as a reaction product. The measured value when the compound was not treated was used as a positive control, and the measured value of the compound treated group was calculated as a relative % to measure the inhibition effect of the compound on TG production.

Compound | pIC50
CCOC(=O)C(F)(F)c1ccc(CC(=O)Nc2cncc(-c3cncc(Oc4ccccc4OCC)c3)n2)cc1 [US20230322706, Example 6] | 6.92
CCOc1ccccc1Oc1cccc(-c2cncc(NC(=O)Cc3ccc(C(F)(F)C(=O)O)cc3)n2)c1 [US20230322706, Example 14] | 5.51
CCOc1ccccc1Oc1cccc(-c2cncc(NC(=O)/C=C/c3ccc(C(C)(C)C(=O)O)cc3)n2)c1 [US20230322706, Example 17] | 6.62
